From patent publication EP1585727B1, “INDOLES USEFUL IN THE TREATMENT OF ANDROGEN-RECEPTOR RELATED DISEASES” (priority 2002, dated 2004)

What was measured:
human androgen receptor [1] = biological target: T1, human androgen receptor (Homo sapiens, UniProt P10275); assay: cell-based
T1 construct: expressed in transfected cells; host or cells: Chinese hamster ovary (CHO) cells, cell line CHO-AR-pMMTV-LUC 1G12-A5-CA
T1 sequence (P10275 1-920): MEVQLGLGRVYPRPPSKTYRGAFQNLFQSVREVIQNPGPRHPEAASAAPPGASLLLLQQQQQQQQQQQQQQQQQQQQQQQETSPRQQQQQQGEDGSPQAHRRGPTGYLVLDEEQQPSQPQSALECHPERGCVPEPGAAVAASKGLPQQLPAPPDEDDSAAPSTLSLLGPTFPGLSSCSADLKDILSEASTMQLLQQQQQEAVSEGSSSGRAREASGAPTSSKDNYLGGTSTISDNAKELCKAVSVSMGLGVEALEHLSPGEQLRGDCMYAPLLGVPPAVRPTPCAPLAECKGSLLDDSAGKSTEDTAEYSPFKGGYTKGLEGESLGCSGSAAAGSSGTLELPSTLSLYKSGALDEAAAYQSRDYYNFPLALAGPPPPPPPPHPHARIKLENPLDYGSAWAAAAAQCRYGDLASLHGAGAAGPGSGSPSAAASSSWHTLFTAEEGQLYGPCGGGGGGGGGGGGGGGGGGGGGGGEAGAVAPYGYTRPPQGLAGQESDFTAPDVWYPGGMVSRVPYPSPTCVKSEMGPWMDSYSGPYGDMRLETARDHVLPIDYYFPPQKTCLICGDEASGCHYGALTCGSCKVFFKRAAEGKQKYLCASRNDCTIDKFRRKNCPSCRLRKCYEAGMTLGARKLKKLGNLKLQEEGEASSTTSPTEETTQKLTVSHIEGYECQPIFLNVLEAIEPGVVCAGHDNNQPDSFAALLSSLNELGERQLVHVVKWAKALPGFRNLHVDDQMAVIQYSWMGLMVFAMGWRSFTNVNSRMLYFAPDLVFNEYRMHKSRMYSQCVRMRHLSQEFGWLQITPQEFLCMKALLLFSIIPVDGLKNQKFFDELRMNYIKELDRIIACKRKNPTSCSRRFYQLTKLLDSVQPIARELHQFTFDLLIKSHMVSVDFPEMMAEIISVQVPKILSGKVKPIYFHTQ
Experimental: (§1) Compounds were tested for their Androgen Receptor activity in a transactivation assay and in a binding assay.
(§2) The (anti-)androgenic activity of test compounds (EC50 and intrinsic activity) was determined in an in vitro bioassay of Chinese hamster ovary (CHO) cells stably transfected with the human androgen receptor expression plasmid and a reporter plasmid in which the MMTV-promoter is linked to the luciferase reporter gene. The cell-line CHO-AR-pMMTV-LUC 1G12-AS-CA is described in Schoonen et al. (2000), Journal of Steroid Biochemistry and Molecular Biology 74(4):213-222. The antiandrogenic activity of a test compound was determined by the inhibition of the transactivation via the androgen receptor of the enzyme luciferase in the presence of 1 nM DHT (5 α-dihydrotestosterone, 17β-hydroxy-5α-androstan-3-one). Intrinsic activity of antiandrogenic activity was determined in the presence of the reference antiandrogen 2-Hydroxy-2-methyl-N-(4-nitro-3-trifluoromethyl-phenyl)-propionamide (Hydroxyflutamide), and set at 100%. For androgenic activity, maximal intrinsic activity in the presence of 100 nM DHT was set at 100%. Table 4 Androgen receptor activity

human androgen receptor [2] = biological target: T1, human androgen receptor; assay: Androgen receptor transactivation assay, antiandrogenic activity: inhibition of transactivation in the presence of 1 nM DHT (CHO-AR-pMMTV-LUC cells; Table 4); format: cell-based; details: for Emax: intrinsic activity relative to reference antiandrogen Hydroxyflutamide (set at 100%); for EC50: antiandrogenic activity, read-out: ant EC50
Experimental: as §1, §2

human androgen receptor [3] = biological target: T1, human androgen receptor; assay: Androgen receptor transactivation assay, androgenic activity in the presence of 0.1 µmol/l onapristone (CHO-AR-pMMTV-LUC cells; Table 5); format: cell-based; details: for ago efficacy: maximal intrinsic activity in the presence of 100 nM DHT set at 1.00; for ago potency: potency expressed as percentage of DHT activity
Experimental: The androgenic activity (EC50, potency, and efficacy) of the compounds in Table 5 was determined in an in vitro bioassay of Chinese hamster ovary (CHO) cells stably transfected with the human androgen receptor expression plasmid and a reporter plasmid in which the MMTV promotor is linked to the luciferase reporter gene. The cell line CHO-AR-pMMTV-LUC 1G12-A5-CA is described in Schoonen et al. (J. Steroid Biochem. Molec. Biol. […]; 74: 213-222). The androgen receptor activity of compounds was determined in the presence of 0.1 µmol/l onapristone. The maximal efficacy in the presence of 100 nmol/l DHT was set as 100%. The potencies are expressed as percentage of DHT activity. Table 5 Androgen receptor activity

[4] = test system: cytoplasmic human androgen receptor; assay: Competitive binding to cytoplasmic human androgen receptor from recombinant CHO cells (relative binding affinity); details: relative to DHT; cytosol of CHO-AR-pMMTV-LUC 1G12-A5-CA cells
From the text: Determination of competitive binding to cytoplasmic human androgen receptor from recombinant CHO cells is used to estimate the relative binding affinity (RBA) of a test compound for androgen receptors present in the cytosol prepared of the recombinant CHO cell-line, CHO-AR-pMMTV-LUC 1G12-A5-CA.

[5] = androgenic activity, CHO-AR-pMMTV-LUC cells, read-out: ago EC50
[6] = in the presence of 1 nM DHT, read-out: ant efficacy

SMILES	ago efficacy (human androgen receptor [3])	ago potency (human androgen receptor [3])	also measured
COc1ccc2c(Sc3ccccc3C(N)=O)cn(Cc3cc(F)cc(F)c3)c2c1 [Compound 18, 2-[1-(3,5-Difluoro-benzyl)-6-methoxy-1H-indol-3-ylsulfanyl]-benzamide]	–	–	EC50 (human androgen receptor [1]; [5]): > 10 µM; Emax (human androgen receptor [2]; read-out: ant efficacy, in the presence of 1 nM DHT): 20 to 50%
COc1ccc2c(Sc3ccccc3OC)cn(Cc3cc(F)cc(F)c3)c2c1 [Compound 21]	–	–	EC50 (human androgen receptor [1]; [5]): 0.005 to 0.1 µM; EC50 (human androgen receptor [2]; in the presence of 1 nM DHT): > 10 µM; Emax (human androgen receptor [2]; [6]): < 20%
O=[N+]([O-])c1ccccc1Sc1cn(Cc2cc(F)cc(F)c2)c2ccccc12 [Compound 52]	–	–	EC50 (human androgen receptor [1]): < 0.005 µM; Emax (human androgen receptor [2]; [6]): < 20%
O=[N+]([O-])c1ccccc1Sc1cn(Cc2cc(F)cc(F)c2)c2cccc(F)c12 [Compound 51]	–	–	EC50 (human androgen receptor [1]): 0.005 to 0.1 µM; Emax (human androgen receptor [2]; [6]): < 20%
O=[N+]([O-])c1ccccc1Sc1cn(Cc2cc(F)cc(F)c2)c2ccc(O)cc12 [Compound 56]	–	–	Emax (human androgen receptor [1]; maximal intrinsic activity in the presence of 100 nM DHT set at 1.00, read-out: ago efficacy): < 20%; EC50 (human androgen receptor [2]; in the presence of 1 nM DHT): > 10 µM; Emax (human androgen receptor [2]; [6]): < 20%
CC(=O)Nc1ccc2c(Sc3ccccc3[N+](=O)[O-])cn(Cc3cccnc3)c2c1 [Compound 103, N-[3-(2-Nitro-phenylsulfanyl)-1-pyridin-3-ylmethyl-1H-indol-6-yl]-acetamide]	+ (between 0.50 and 0.80)	+ (between 1% and 5%)	–
COc1ccc2c(Sc3ccccc3[N+](=O)[O-])cn(Cc3cc(F)cc(F)c3F)c2c1 [Compound 95, 6-Methoxy-3-(2-nitro-phenylsulfanyl)-1-(2,3,5-trifluoro-benzyl)-1H-indole]	++ (≥0.80)	± (between 0.1 % and 1%)	–
N#Cc1ccc2c(Sc3ccccc3[N+](=O)[O-])cn(Cc3cncnc3)c2c1 [Compound 123, 3-(2-Nitro-phenylsulfanyl)-1-pyrimidin-5-ylmethyl-1H-indole-6-carbonitrile]	++ (≥0.80)	++ (>5%)	–
CCC(=O)Nc1ccc2c(Sc3ccccc3[N+](=O)[O-])cn(Cc3cc(F)cc(F)c3)c2c1 [Compound 99, N-[1-(3,5-Difluoro-benzyl)-3-(2-nitro-phenylsulfanyl)-1H-indol-6-yl]-propionamide]	+ (between 0.50 and 0.80)	± (between 0.1 % and 1%)	–
N#Cc1ccc2c(Sc3ccccc3[N+](=O)[O-])cn(Cc3ccncc3)c2c1 [Compound 122, 3-(2-Nitro-phenylsulfanyl)-1-pyridin-4-ylmethyl-1H-indole-6-carbonitrile]	+ (between 0.50 and 0.80)	+ (between 1% and 5%)	–
O=C(CF)Nc1ccc2c(Sc3ccccc3[N+](=O)[O-])cn(Cc3cccnc3)c2c1 [Compound 104, 2-Fluoro-N-[3-(2-nitro-phenylsulfanyl)-1-pyridin-3-ylmethyl-1H-indol-6-yl]-acetamide]	- (<0.20)	+ (between 1% and 5%)	–
CNC(=O)c1ccc2c(Sc3ccccc3[N+](=O)[O-])cn(Cc3cccnc3)c2c1 [Compound 112, 3-(2-Nitro-phenylsulfanyl)-1-pyridin-3-ylmethyl-1H-indole-6-carboxylic acid methylamide]	± (between 0.20 and 0.50)	+ (between 1% and 5%)	–
CCNC(=O)c1ccc2c(Sc3ccccc3[N+](=O)[O-])cn(Cc3cccnc3)c2c1 [Compound 113, 3-(2-Nitro-phenylsulfanyl)-1-pyridin-3-ylmethyl-1H-indole-6-carboxylic acid ethylamide]	+ (between 0.50 and 0.80)	+ (between 1% and 5%)	–
COc1ccc2c(Sc3ccccc3[N+](=O)[O-])cn(Cc3cc(F)c(F)c(F)c3)c2c1 [Compound 94, 6-Methoxy-3-(2-nitro-phenylsulfanyl)-1-(3,4,5-trifluoro-benzyl)-1H indole]	++ (≥0.80)	+ (between 1% and 5%)	–
COc1ccc2c(Sc3ccccc3[N+](=O)[O-])cn(Cc3ccccc3)c2c1 [Compound 92]	–	–	Emax (human androgen receptor [2]; [6]): < 20%; relative binding affinity (RBA) [4]: > 1%
COc1ccc2c(Sc3ccccc3[N+](=O)[O-])cn(Cc3ccc(Cl)nc3)c2c1 [Compound 96, 1-(6-Chloro-pyridin-3-ylmethyl)-6-methoxy-3-(2-nitro-phenylsulfanyl)-1H-indole]	± (between 0.20 and 0.50)	± (between 0.1 % and 1%)	–
COc1ccc2c(Sc3ccccc3[N+](=O)[O-])cn(Cc3cnccn3)c2c1 [Compound 117, 6-Methoxy-3-(2-nitro-phenylsulfanyl)-1-pyrazin-2-ylmethyl-1H-indole]	+ (between 0.50 and 0.80)	+ (between 1% and 5%)	–
O=[N+]([O-])c1ccccc1Sc1cn(Cc2cc(F)cc(F)c2)c2cc(NS(=O)(=O)c3ccsc3)ccc12 [Compound 107, Thiophene-3-sulfonic acid [1-(3,5-difluoro-benzyl)-3-(2-nitro-phenylsulfanyl)-1H-indol-6-yl]-amide]	++ (≥0.80)	+ (between 1% and 5%)	–
COc1ccc2c(Sc3ccccc3[N+](=O)[O-])cn(Cc3ccncc3)c2c1 [Compound 93]	+ (between 0.50 and 0.80)	± (between 0.1 % and 1%)	–
O=C(NC1CC1)c1ccc2c(Sc3ccccc3[N+](=O)[O-])cn(Cc3cccnc3)c2c1 [Compound 114, 3-(2-Nitro-phenylsulfanyl)-1-pyridin-3-ylmethyl-1H-indole-6-carboxylic acid cyclopropylamide]	++ (≥0.80)	+ (between 1% and 5%)	–
Cl.N#Cc1ccc2c(Sc3ccccc3[N+](=O)[O-])cn(Cc3ccccn3)c2c1 [Compound 120, 3-(2-Nitro-phenylsulfanyl)-1-pyridin-2-ylmethyl-1H-indole-6-carbonitrile monohydrochloride]	++ (≥0.80)	++ (>5%)	–
O=C(CF)Nc1ccc2c(Sc3ccccc3[N+](=O)[O-])cn(Cc3cc(F)cc(F)c3)c2c1 [Compound 97, N-[1-(3,5-Difluoro-benzyl)-3-(2-nitro-phenylsulfanyl)-1H-indol-6-yl]-2-fluoro-acetamide]	++ (≥0.80)	+ (between 1% and 5%)	–
